Drawing on patent US9617282B2, “Macrocyclic compounds as IRAK4 inhibitors for the treatment of inflammatory diseases” (BIOGEN MA INC., priority 2013, dated 2017), this text covers IC50 and EC50 for 26 compounds.

Bounds are passed on as bounds.

The target in assay [1] is IRAK4 (Homo sapiens (Human), UniProt Q9NWZ3). The experiment in a line: IRAK-4 biochemical kinase assay, AlphaScreen format. The conditions noted are these: 1 nM IRAK4, 1.6 μM peptide, 10 μM ATP, 3.5 h at RT; class symbols. In outline:
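AlphaScreen read-out: streptavidin beads bind the biotinylated peptide and protein A beads bind the anti-phosphothreonine antibody, so energy transfer reports phosphorylation of the peptide. The kinase is human IRAK-4.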

Assay [2] relates to A549 cells. Kind of assay: Cell-based assay, IL-6 ELISA quantification in IL-1 beta stimulated A549 cells. Particulars: 2 ng/ml human IL-1 beta overnight, class symbols, read-out: Celluar Data EC50. As to the method: The cell-based assays is based on IL-6 ELISA quantification. Briefly, A549 cells are cultured in DMEM with 10% FBS medium. When cells reach 80% confluence they are trypsin treated and seeded in 96-well plate at 2.5×10^4 cells/well. Then, 20 ul of compound serial dilutions (starting at 10 uM, 10 points) are added to the cell plate; incubate for 1 hour at 37 C and stimulated with 2 ng/ml human IL-1 beta 37 C overnight. The next day 100 ul of cell supernatant per well are analyzed on a Human IL-6 Quantikine ELISA kit from R&D Systems.

Chain of IRAK4 (Q9NWZ3 whole entry, species assumed): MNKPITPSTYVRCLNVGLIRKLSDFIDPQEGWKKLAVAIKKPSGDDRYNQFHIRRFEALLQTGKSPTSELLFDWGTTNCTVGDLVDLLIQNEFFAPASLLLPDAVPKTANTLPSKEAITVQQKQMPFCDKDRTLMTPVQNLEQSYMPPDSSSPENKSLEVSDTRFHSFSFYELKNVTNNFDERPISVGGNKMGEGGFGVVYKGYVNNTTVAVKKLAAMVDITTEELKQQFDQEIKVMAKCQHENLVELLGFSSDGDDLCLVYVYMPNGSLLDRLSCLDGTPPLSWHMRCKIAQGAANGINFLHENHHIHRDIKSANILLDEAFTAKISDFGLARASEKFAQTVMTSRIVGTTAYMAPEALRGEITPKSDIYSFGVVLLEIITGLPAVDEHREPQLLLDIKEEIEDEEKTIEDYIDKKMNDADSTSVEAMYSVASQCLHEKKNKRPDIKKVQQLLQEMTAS

Usually IC50 stands for the concentration at which inhibition is half-maximal. A high value points to weaker potency in that assay. One may read the EC50 as the concentration at which the effect is half-maximal. In assay [1], `NC(=O)CCn1cc2c(n1)C(=O)NCCOCCOc1cc(ccn1)-c1nc(cs1)C(=O)N2` [Example 151] returned an IC50 of less than 1 µM. For the same compound, in assay [2], the EC50 is greater than 10 µM.

Consider `O=C1CCNC(=O)c2csc(n2)-c2ccnc(c2)OCCOCCN1` [Example 126], for which the IC50 in assay [1] was less than 1 µM. The EC50 in assay [2] is greater than 10 µM.

`Cn1cc2c(n1)C(=O)NCCCCCc1cc(ccn1)-c1nc(cs1)C(=O)N2` [Example 96]: in assay [1], the IC50 is less than 0.1 µM. In addition, in assay [2], the EC50 was less than 10 µM.

On to `CN1CCN(CCn2cc3c(n2)C(=O)NCCOCCOc2cc(ccn2)-c2nc(cs2)C(=O)N3)CC1` [Example 113], for which, in assay [1], the half-inhibitory concentration (IC50) was less than 0.1 µM. Also, the concentration for a half-maximal effect (EC50) in assay [2] was less than 10 µM.

`O=C1Nc2cn(C3CCOCC3)nc2C(=O)NCCOCCCc2cc(ccn2)-c2nc1cs2` [Compound 47]: the IC50 in assay [1] is less than 0.1 µM. Also, the concentration for a half-maximal effect (EC50) in assay [2] is less than 1 µM.

In assay [1], `Cn1cc2c(n1)C(=O)NCCC/C=C/CCCNc1cc(ccn1)-c1nc(co1)C(=O)N2` [Example 140] displayed an IC50 of less than 0.1 µM. Also, the EC50 in assay [2] was less than 1 µM.

Take `Cn1cc2c(n1)C(=O)NCCOCCCCc1cc(ccn1)-c1nc(cs1)C(=O)N2` [Example 217]: the IC50 in assay [1] was less than 0.1 µM. Besides, the 50% effective concentration (EC50) in assay [2] was less than 10 µM.

Take `O=C(O)Cn1cc2c(n1)C(=O)NCCOCCOc1cc(ccn1)-c1nc(cs1)C(=O)N2` [Example 146]: the half-inhibitory concentration (IC50) in assay [1] was less than 10 µM. Also, the EC50 in assay [2] was greater than 10 µM.

`O=C1Nc2cn(C3CCOCC3)nc2C(=O)NCCOCCc2cc(ccn2)-c2nc1cs2` [Example 134] returned a 50% inhibitory concentration (IC50) in assay [1] of less than 0.1 µM. The half-maximal effective concentration (EC50) in assay [2] is greater than 10 µM.

In assay [1], `CCn1cc2c(n1)C(=O)NCCOCCOc1cc(ccn1)-c1nc(cs1)C(=O)N2` [Example 139] showed an IC50 of less than 0.1 µM. For the same compound, the EC50 in assay [2] was greater than 10 µM.

The compound `O=C1Nc2cn(CCN3CCOCC3)nc2C(=O)NCCOCCOc2cc(ccn2)-c2nc1cs2` [Example 112] displayed an IC50 in assay [1] of less than 0.1 µM. For the same compound, the EC50 in assay [2] was less than 10 µM.

`Cn1cc2c(n1)C(=O)NCCOCCCc1cc(ccn1)-c1nc(cs1)C(=O)N2` [Compound 48] displayed an IC50 in assay [1] of less than 0.1 µM. In addition, in assay [2], the concentration for a half-maximal effect (EC50) was less than 10 µM.

`CC(C)(C)OC(=O)N1CCC(CCn2cc3c(n2)C(=O)NCCOCCOc2cc(ccn2)-c2nc(cs2)C(=O)N3)CC1` [Example 154]: in assay [1], the IC50 is less than 0.1 µM. Moreover, in assay [2], the EC50 was greater than 10 µM.

In assay [1], `CN(C)CCn1cc2c(n1)C(=O)NCCOCCOc1cc(ccn1)-c1nc(cs1)C(=O)N2` [Example 111] gave an IC50 of less than 1 µM. In assay [2], the 50% effective concentration (EC50) is greater than 10 µM.

In assay [1], `CCOC(=O)CCn1cc2c(n1)C(=O)NCCOCCOc1cc(ccn1)-c1nc(cs1)C(=O)N2` [Example 150] yielded an IC50 of less than 0.1 µM. Also, in assay [2], the EC50 is greater than 10 µM.

In assay [1], `CC(C)(C)OC(=O)N1CCN(CCn2cc3c(n2)C(=O)NCCOCCNc2cc(ccn2)-c2nc(cs2)C(=O)N3)CC1` [Example 144] returned an IC50 of less than 0.1 µM. The EC50 in assay [2] was less than 10 µM.

As for `CN1CCN(CCn2ncc3c2C(=O)NCCOCCNc2cc(ccn2)-c2nc(cs2)C(=O)N3)CC1` [Example 142], the 50% inhibitory concentration (IC50) in assay [1] is less than 1 µM. Moreover, in assay [2], the EC50 is greater than 10 µM.

Turning to `Cn1cc2c(n1)C(=O)NCCOCCNc1cc(ccn1)-c1nc(cs1)C(=O)N2` [Compound 45], the concentration for half-maximal inhibition (IC50) in assay [1] was less than 0.1 µM. Also, the half-maximal effective concentration (EC50) in assay [2] is less than 1 µM.

`O=C1Nc2ccncc2C(=O)NCCOCCOc2cc(ccn2)-c2nc1cs2` [Example 129] returned an IC50 in assay [1] of less than 0.1 µM. Also, the EC50 in assay [2] is less than 1 µM.

In assay [1], `O=C1Nc2cccnc2C(=O)NCCOCCOc2cc(ccn2)-c2nc1cs2` [Example 128] gave an IC50 of less than 0.1 µM. Also, the concentration for a half-maximal effect (EC50) in assay [2] is greater than 10 µM.

In assay [1], `O=C1Nc2cn(C3CCOCC3)nc2C(=O)NCCOCCCCc2cc(ccn2)-c2nc1cs2` [Example 218] returned an IC50 of less than 0.1 µM. In assay [2], the EC50 was less than 10 µM.

`Cn1cc2c(n1)C(=O)NCCOCCOc1cc(ccn1)-c1nc(cs1)C(=O)N2` [Compound 43] displayed an IC50 in assay [1] of less than 0.1 µM. For the same compound, in assay [2], the EC50 is less than 10 µM.

Regarding `O=C1Nc2cn(C3CCOCC3)nc2C(=O)NCCCCCc2cc(ccn2)-c2nc1cs2` [Example 95], the half-inhibitory concentration (IC50) in assay [1] was less than 0.1 µM. The EC50 in assay [2] was less than 1 µM.

Consider `CN1CCC(Cn2cc3c(n2)C(=O)NCCOCCOc2cc(ccn2)-c2nc(cs2)C(=O)N3)CC1` [Example 158], for which the IC50 in assay [1] is less than 1 µM. In assay [2], the EC50 is greater than 10 µM.

For `CN(C)C(=O)Cn1cc2c(n1)C(=O)NCCOCCOc1cc(ccn1)-c1nc(cs1)C(=O)N2` [Example 166], in assay [1], the half-inhibitory concentration (IC50) is less than 1 µM. Besides, the 50% effective concentration (EC50) in assay [2] is greater than 10 µM.

Take `O=C(O)CCn1cc2c(n1)C(=O)NCCOCCOc1cc(ccn1)-c1nc(cs1)C(=O)N2` [Example 149]: the half-inhibitory concentration (IC50) in assay [1] is less than 1 µM. In addition, in assay [2], the EC50 was greater than 10 µM.
